Assay results as given in patent publication US20190275040A1, “COMPOUNDS AND METHODS FOR TREATING OR PREVENTING ALZHEIMER'S DISEASE” (YALE UNIVERSITY, priority 2016, published 2019).
pKi: −log10 of the molar value.

Assays:
APP/PS1 transgenic mice = assay: Learning and memory (novel object recognition, Morris water maze) in APP/PS1 transgenic mice; format: in vivo, mouse; conditions: 12 month APP/PS1 mice, 25 mg/kg/d minipump i.p. infusion, 3-6 weeks
Protocol: FIG. 5A plots the time mice spent interacting with a familiar and a novel object. Mean±SEM, n=10-16 mice. *, p<0.05; **, p<0.01 by two-way ANOVA, Sidak's multiple comparisons test. FIG. 5B depicts spatial learning and memory as examined by the Morris-Water-Maze after 30 swim trials to a hidden platform. A 60 second probe trial was performed 24 hours after completion of training. Time spent in the quadrant where the hidden platform had been located. Mean±SEM of n=7-23 mice. *, p<0.05; ***, p<0.001. Dashed lines in FIGS. 5A-5B are chance (no memory). […]
The efficacy of PF-719 Pyk2 inhibitor to rescue AD transgenic phenotypes was tested by infusion for 6 weeks in 12 month APP/PS1 transgenic with pre-established memory deficits and WT mice, similar to the SAM 923 and Pyk2−/− experiments. […] The brains of these mice are analyzed for synapse density, gliosis and Aβ. […]
Mice were handled for five minutes a day for five days prior to experiment to reduce anxiety. […] Object choice was pseudorandom; the object was recorded as the familiar object for each animal. The mouse was then replaced in cage's center, not facing either object, and a total timer counted up to ten minutes. The mice were allowed to explore the object and the time it took to accumulate thirty seconds of total orofacial object exploration was recorded. […]

[1] = test system: cultured mouse hippocampal neurons; assay: GFP-Pyk2 overexpression-induced dendritic spine loss in cultured hippocampal neurons; format: cell-based; conditions: PF-719 1 μM; Y27632 10 μM; DIV 17-21
From the text: FIG. 7A: TBS-T soluble human Alzheimer's disease brain extracts were immunoblotted with anti-Pyk2 or anti-pY402 Pyk2 specific antibodies. FIG. 7B: Densitometric analysis of the immunoblots from FIG. A. p-Pyk2/Pyk2 ratio values were normalized to control mean value. Data are graphed as mean±SEM (Control, n=10; AD, n=10). *p<0.05 by Student's two-tailed t test. FIG. 7C: Representative immunofluorescent images of Pyk2 immunoreactivity from hippocampal CA1 in WT and Pyk2 null mice at 12-months age. […] FIG. 7D: Hek293T cells were co-transfected with either control vector or flag-tagged Fyn and GFP-tagged Pyk2 or K457A kinase dead mutant. Lysates were immunoblotted with anti-GFP (for GFP tagged Pyk2 and K457A mutant), anti-Fyn, and anti-pSFK antibodies. FIG. 7E: Representative GFP fluorescent images of cultured mouse hippocampal neurons. […] FIG. 7G: Quantification of dendritic spine density in the transfected neurons.
FIG. 10A: GST-RBD pull-down assay from Hek293T cell lysate from cells expressing indicated plasmids. […] FIG. 10B: Levels of RhoA-GTP (RBD pull-down) and RhoA-total (5% lysate) were quantified by densitometric measurement. […] FIG. 10D: Quantification of RhoA-GTP/total RhoA ratio by densitometric analysis. […] FIG. 10E: Representative GFP fluorescence images of the cultured hippocampal neurons. […] FIG. 10F: Quantification of dendritic spine density. […]

[2] = test system: primary hippocampal neurons; assay: Dendritic spine motility in primary hippocampal neurons; format: cell-based, mouse; conditions: Aβo 24 hours; PF-719 1 μM, Y27632 10 μM
From the text: FIG. 11A: Representative images of dendritic spine motility by standard deviation projection of time-lapse image. […] The standard deviation value for each pixel is shown by thermal color scale. […] FIG. 11B: Quantification of spine motility, expressed as % of changed area of spines with subtraction of changed area of dendritic shaft as background (changed area=(ΔAspine/Aspine×100)−(ΔAshaft/Ashaft×100)). […] Data are graphed as mean±SEM (n=7-8 coverslips from 3 different cultures). **p<0.01, ***p<0.001 by ANOVA, Tukey's multiple comparisons test.
FIG. 18A: Representative images of dendritic spine motility by standard deviation projection of time stacks. […] To display the spine motility in time-lapse images, the time stack images over 5 min of each conditions were projected to standard deviation using Image J and color coated with thermal color scale. […] FIG. 18B: Quantification of spine motility, expressed as % of changed area of spines with subtraction of dendritic shaft area change (changed area=(ΔAspine/Aspine×100)−(ΔAshaft/Ashaft×100)). Mean±SEM (n=5 coverslips).
Time-lapse images were acquired for 5 minutes with 10 second intervals in Tyrode's solution using 60× objective lens driven Volocity software. Time-lapse images (31 time frames over 5 min) were subjected to standard deviation (STD) projection to visualize spine motility in single image and colorized with thermal scale using ImageJ software (NIH). Quantitative measurements of spine motility by calculating the changed area at individual dendritic spines were conducted by using ImageJ software by an observer unaware of treatment group.

Fyn = Fyn (Homo sapiens, UniProt P06241); conditions: cited from earlier work
Sequence of Fyn (P06241 whole entry, species assumed): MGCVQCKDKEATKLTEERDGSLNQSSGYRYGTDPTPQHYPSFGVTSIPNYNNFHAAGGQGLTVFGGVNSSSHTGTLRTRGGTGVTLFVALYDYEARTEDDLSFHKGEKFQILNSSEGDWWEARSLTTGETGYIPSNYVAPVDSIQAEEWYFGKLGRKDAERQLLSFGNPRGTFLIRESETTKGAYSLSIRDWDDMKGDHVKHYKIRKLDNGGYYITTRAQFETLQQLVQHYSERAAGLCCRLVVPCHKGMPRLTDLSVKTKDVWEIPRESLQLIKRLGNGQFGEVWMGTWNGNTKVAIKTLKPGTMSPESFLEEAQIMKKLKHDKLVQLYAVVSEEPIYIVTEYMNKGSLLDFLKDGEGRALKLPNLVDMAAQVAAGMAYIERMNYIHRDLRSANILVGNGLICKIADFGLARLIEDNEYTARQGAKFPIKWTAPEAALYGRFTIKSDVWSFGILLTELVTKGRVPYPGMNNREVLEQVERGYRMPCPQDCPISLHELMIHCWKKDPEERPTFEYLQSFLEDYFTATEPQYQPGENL

FAK = FAK (Homo sapiens, UniProt Q05397); assay: FAK Ki and selectivity versus Pyk2; format: biochemical
Sequence of FAK (Q05397 whole entry, species assumed): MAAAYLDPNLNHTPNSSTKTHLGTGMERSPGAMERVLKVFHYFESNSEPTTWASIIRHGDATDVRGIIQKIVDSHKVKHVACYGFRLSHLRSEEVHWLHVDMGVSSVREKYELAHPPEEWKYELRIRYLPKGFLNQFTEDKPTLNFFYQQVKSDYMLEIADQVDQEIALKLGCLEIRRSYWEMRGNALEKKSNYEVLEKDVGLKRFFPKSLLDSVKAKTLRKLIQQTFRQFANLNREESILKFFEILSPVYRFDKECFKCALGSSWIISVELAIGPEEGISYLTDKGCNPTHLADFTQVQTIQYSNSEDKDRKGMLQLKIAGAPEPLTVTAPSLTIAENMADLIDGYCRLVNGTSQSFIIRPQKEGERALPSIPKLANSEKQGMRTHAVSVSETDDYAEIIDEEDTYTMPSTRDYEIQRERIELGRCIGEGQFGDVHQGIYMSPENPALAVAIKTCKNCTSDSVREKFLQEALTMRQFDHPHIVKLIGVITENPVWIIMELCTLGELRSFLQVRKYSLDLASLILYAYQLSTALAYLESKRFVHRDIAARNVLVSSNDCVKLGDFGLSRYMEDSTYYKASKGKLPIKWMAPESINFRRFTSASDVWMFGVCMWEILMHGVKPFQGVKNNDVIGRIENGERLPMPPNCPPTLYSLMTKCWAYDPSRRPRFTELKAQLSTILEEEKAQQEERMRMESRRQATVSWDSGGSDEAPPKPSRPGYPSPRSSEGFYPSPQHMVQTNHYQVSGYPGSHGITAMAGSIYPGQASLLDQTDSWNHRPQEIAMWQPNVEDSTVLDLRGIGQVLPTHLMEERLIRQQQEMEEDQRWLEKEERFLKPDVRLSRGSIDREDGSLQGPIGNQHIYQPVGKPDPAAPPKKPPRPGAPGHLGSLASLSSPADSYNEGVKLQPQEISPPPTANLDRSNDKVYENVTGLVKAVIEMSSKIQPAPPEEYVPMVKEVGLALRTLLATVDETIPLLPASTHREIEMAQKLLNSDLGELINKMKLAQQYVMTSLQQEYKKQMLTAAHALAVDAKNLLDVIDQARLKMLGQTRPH

Pyk2 activation (p-Pyk2) = assay: Pyk2 activation and Aβo-induced signaling in cells; format: cell-based; conditions: 500 nM
Protocol: In brain slices and in dissociated primary neuronal cultures, Aβo causes Fyn activation, Pyk2 activation, altered Glu-induced calcium signaling, dendritic spine loss and suppression of LTP. […] After developing LC/MS/MS methods to detect PF-719, the extent to which the Pyk2 inhibitor enters brain from peripheral dosing was determined. […] Continuous 25 mg/kg/d minipump i.p. infusion was chosen for treatment of APP/PS1 mice.

CCOc1ccc2nc(SCc3nc(N)nc(N4CCOCC4)n3)sc2c1 [PF-719, 4-(((6-ethoxybenzo[d]thiazol-2-yl)thio)methyl)-6-morpholino-1,3,5-triazin-2-amine]
learning and memory performance (APP/PS1 transgenic mice): significantly greater than Vehicle/untreated levels
GFP-Pyk2-induced spine loss [1]: partial rescue
Aβo-induced decrease in spine motility [2]: rescue fully the Aβo-induced decrease in spine motility
pKi (Fyn): < 6.00
selectivity Pyk2 versus FAK (FAK): 30 ×
baseline Pyk2 activation and Aβo-induced signaling in cells (Pyk2 activation (p-Pyk2)): blocked baseline Pyk2 activation and Aβo-induced signaling
